PMC6681021 (Pharmaceutics, 2019)
“And” between values parts separate entries of the source, which are not always exact repeats. Equal values may be shown once. Read-outs that look alike come from different tables or passages of the source.

Legend:
[1] = Hepatic first-pass effect: 30-min intravenous vs intraportal infusion in rats; type: in vivo, Sprague-Dawley rats; conditions: for AUC / CL renal / MRT / clearance / half-life / Vd: Sprague-Dawley, rat, plasma; for half-life: read-out: Terminal half-life; for Vd: read-out: Vss
Description: The carotid artery and jugular vein were handled as described previously. In addition, the vein from the cecum was cannulated and the cannula was pushed forward about 4 cm toward the liver through the portal vein to minimize the damage from blood flowing into the portal vein [13, 14]. […] Blood samples were collected from the carotid artery at times 0, 15, 30 (at the end of the infusion), 31, 35, 45, 60, 90, 150, 210, 270, 390, 510, and 630 min, with all sample collection and processing procedures identical to those described above.
(§1) Pharmacokinetic parameters, including AUC, apparent volume of distribution at steady state (Vss), mean residence time (MRT), and time-averaged total body (CL), renal (CLR), and nonrenal (CLNR) clearances, were calculated by noncompartmental analysis (WinNonlin, Pharsight Corporation, Mountain View, CA, USA) using standard methods. AUC values were calculated using the trapezoidal rule–extrapolation method. The peak plasma concentration (Cmax) and time to reach Cmax (Tmax) were obtained directly from the experimental data. The mean values of clearance, terminal half-life, and Vss were calculated using the harmonic mean method.

[2] = Pharmacokinetics after oral administration of tofacitinib to rats; type: in vivo, Sprague-Dawley rats; conditions: for CL renal / Cmax / Tmax / bioavailability: male, Sprague-Dawley; for CL renal / Cmax / Tmax / bioavailability / AUC: rat; for CL renal: plasma and urine; for Cmax / Tmax / bioavailability / AUC: plasma; for bioavailability: dose-normalized oral AUC / AUC of 10 mg/kg iv, read-out: F (bioavailability); for Dose-normalized AUC: normalized to 10 mg/kg; for AUC: male Sprague-Dawley rats
Description: The pretreatment and surgical procedures for oral and intravenous administration were similar to those described previously. For oral administration, the rats were fasted overnight with free access to water. The rats were anesthetized with ketamine (200 mg/kg), and their carotid arteries were cannulated using polyethylene tubing (Clay Adams, Parsippany, NJ, USA) for blood sampling. For intravenous administration, the rats were anesthetized with ketamine (200 mg/kg), and their jugular veins and carotid arteries were cannulated for drug administration and blood sampling, respectively. Rats were allowed to recover for 4–5 h after surgical procedures. The rats were not restrained during the experimental period and had free access to water and food.
Blood samples (110–220 μL) were collected via the carotid artery at times 0 (prior to drug administration), 5, 15, 30, 45, 60, 90, 120, 180, 240, 360, 480, 600, and 720 min. Urine and gastrointestinal tract samples were also obtained over 24 h were processed as described above for the corresponding samples collected after intravenous administration.
Two microliters of hydrocortisone (5 mg/mL) and 40 μL of 20% ammonia solution were added to 100 μL aliquots of biological samples and vortex-mixed for 30 s using a vortex mixer. Each solution was extracted with 1.5 mL of ethyl acetate by centrifugation at 12,000 rpm for 5 min. The organic layer was collected and dried (Dry Thermobath, Eyela, Tokyo, Japan) under a gentle stream of nitrogen gas at 40 °C. The samples were reconstituted in 130 μL of 20% acetonitrile, and 50 μL of resuspended samples were analyzed by HPLC [12].
The mobile phase consisted of a 69.5:30.5 (v/v) mixture of 10 mM ammonium acetate buffer (pH 5.0) and acetonitrile, respectively, with a flow rate of 1.0 mL/min. Column effluent was monitored by a UV detector at 287 nm.
as §1

[3] = cited from earlier work
[4] = 30-min intraportal infusion, 10 mg/kg (n = 7)
[5] = 30-min intravenous infusion, 10 mg/kg

AUC after intraportal administration as % of that after intravenous administration ([1]; 10 mg/kg): 58.0%
CL faster after intraportal than intravenous administration ([1]; 10 mg/kg): 67%
CLNR faster after intraportal than intravenous administration ([1]; 10 mg/kg): 60%
Vss higher after intraportal than intravenous administration ([1]; 10 mg/kg): 50%
Ae0–24 h [1, 4]: 10.7 ± 9.42 % of dose
CLNR [1, 4]: 2.31 ± 0.624 L/h/kg
Ae0–24 h [1, 5]: 12.5 ± 5.20 % of dose
CLNR [1, 5]: 1.44 ± 0.388 L/h/kg
AUC [1, 4]: 4.03 µg·h/mL
CL renal [1, 4]: 0.3 ± 0.281 L/h/kg
MRT [1, 4]: 59.6 min
clearance [1, 4]: 2.63 ± 0.66 L/h/kg
half-life [1, 4]: 42.4 ± 10.4 min
Vd [1, 4]: 2.55 ± 0.72 L/kg
AUC [1, 5]: 6.95 µg·h/mL
CL renal [1, 5]: 0.14 ± 0.174 L/h/kg
MRT [1, 5]: 67.5 min
clearance [1, 5]: 1.58 ± 0.531 L/h/kg
half-life [1, 5]: 46.2 ± 12.5 min
Vd [1, 5]: 1.7 ± 0.737 L/kg
Time to detection in plasma after oral administration ([2]; all four oral doses): ≤ 5 min
Ae0–24 h ([2]; all oral doses): less than 17.2%
F in rats ([2]; based on calculations using the same intravenous and oral doses): 29.1–33.8%
CL renal ([2]; oral 10 mg/kg): 0.696 ± 0.172 L/h/kg
CL renal ([2]; oral 20 mg/kg): 0.418 ± 0.237 L/h/kg
CL renal ([2]; oral 50 mg/kg): 0.457 ± 0.169 L/h/kg
CL renal ([2]; oral 100 mg/kg): 0.202 ± 0.151 L/h/kg
Cmax ([2]; oral 10 mg/kg): 1.13 ± 0.774 µg/mL
Tmax ([2]; oral 10 mg/kg): 15.7 min
bioavailability ([2]; oral 10 mg/kg): 29.1%
Cmax ([2]; oral 20 mg/kg): 3.13 ± 1.27 µg/mL
Tmax ([2]; oral 20 mg/kg): 15.7 min
bioavailability ([2]; oral 20 mg/kg): 39.3%
Cmax ([2]; oral 50 mg/kg): 5.62 ± 2.18 µg/mL
Tmax ([2]; oral 50 mg/kg): 34.4 min
bioavailability ([2]; oral 50 mg/kg): 69.7%
Cmax ([2]; oral 100 mg/kg): 13.1 ± 5.48 µg/mL
Tmax ([2]; oral 100 mg/kg): 170 min
bioavailability ([2]; oral 100 mg/kg): 119%
Ae0–24 h ([2]; oral 10 mg/kg): 11.3 ± 4.60 % of dose
Orally administered dose absorbed from the gastrointestinal tract ([2]; oral 10 mg/kg): approximately 96.8%
Unabsorbed fraction (Funabs) ([2]; oral 10 mg/kg, at 24 h): 3.16%
Dose-normalized AUC ([2]; oral 10 mg/kg): 99.4 µg·min/mL and 99.4 ± 35.5 µg·min/mL
GI24 h (recovered unchanged from entire gastrointestinal tract at 24 h) ([2]; oral 10 mg/kg, 10 mg/kg): 3.16 % of dose and 3.16 ± 5.12 % of dose
Orally administered dose eliminated by first-pass metabolism ([2]; oral 10 mg/kg, 100% − (3.16% + 29.1%)): approximately 67.7%
Ae0–24 h ([2]; oral 20 mg/kg): 10.0 ± 6.51 % of dose
GI24 h (recovered unchanged from entire gastrointestinal tract at 24 h) ([2]; oral 20 mg/kg): 3.13 ± 3.27 % of dose
Dose-normalized AUC ([2]; oral 20 mg/kg): 135 µg·min/mL and 135 ± 26.9 µg·min/mL
Ae0–24 h ([2]; oral 50 mg/kg): 17.2 ± 3.98 % of dose
GI24 h (recovered unchanged from entire gastrointestinal tract at 24 h) ([2]; oral 50 mg/kg): 2.77 ± 3.96 % of dose
Dose-normalized AUC ([2]; oral 50 mg/kg): 238 µg·min/mL and 238 ± 56.0 µg·min/mL
Ae0–24 h ([2]; oral 100 mg/kg): 13.0± 9.47 % of dose
GI24 h (recovered unchanged from entire gastrointestinal tract at 24 h) ([2]; oral 100 mg/kg): 0.772± 0.905 % of dose
Dose-normalized AUC ([2]; oral 100 mg/kg): 407 µg·min/mL and 407 ± 179 µg·min/mL
Slope of plot of AUC versus dose ([2]; oral, dose and AUC ratios based on 10 mg/kg): 4.65
AUC ([2]; oral 10 mg/kg): 1.66 µg·h/mL
AUC ([2]; oral 20 mg/kg): 4.48 µg·h/mL
AUC ([2]; oral 50 mg/kg): 19.9 µg·h/mL
AUC ([2]; oral 100 mg/kg): 67.9 µg·h/mL
Compound: C[C@@H]1CCN(C(=O)CC#N)C[C@@H]1N(C)c1ncnc2[nH]ccc12 [tofacitinib, 3-[(3R,4R)-4-methyl-3-[methyl-(7H-pyrrolo[2,3-day]pyrimidin-4-l)amino]piperidin-1-yl]-3-oxopropanenitril]
AUC of tofacitinib reduced in pretreated rats ([3]; pretreated with dexamethasone, inducer of CYP3A1/2): 56%
AUC of tofacitinib greater in pretreated rats ([3]; pretreated with fluconazole, inhibitor of CYP2C11): 39%
AUC of tofacitinib greater in pretreated rats ([3]; pretreated with ketoconazole, inhibitor of CYP3A1/2): 46%
AUC of tofacitinib reduced in pretreated rats ([3]; pretreated with rifampin, inducer of CYP2C11): 26%
